Legend:
Experiment in all cases: Cell proliferation CellTiterGlo Ex.2
Type in all cases: cell-based
EFO-27 = conditions: Homo sapiens; EFO-27 (Ovary), 72 h
Experimental: (§1) A dose response relationship on cell proliferation was assessed for Compound 13 on 140 tumor cell lines. Briefly, compound treatment of cells started one day after seeding with a final DMSO concentration of 0.100, and was performed by nanodrop-dispensing using a Tecan Dispenser. 0.10% DMSO (solvent) and Staurosporine (10 μM) served as high control (10000 viability) and low control (000 viability), respectively. Compound 13 was tested at 10, 3, 1, 0.3, 0.1, 0.03, 0.01, and 0.003 μM.
(§2) Cells were cultured in the appropriate media. For the assays, cells were seeded in white cell culture-treated flat and clear bottom multiwell plates and incubated at 37° C. overnight before compound was added. After incubation for 72 h at 37° C. at 5% or 10% CO2 dependent on the medium, cell plates were equilibrated to room temperature for one hour, CellTiterGlo reagent (Promega) was added and luminescence was measured approximately an hour later using a luminometer.
(§3) Raw data were converted into percent cell viability relative to the high and low control, which were set to 10000 and 000, respectively.

PANC-1 = conditions: Homo sapiens; PANC-1 (Pancreas), 72 h
Experimental: as §1, §2, §3

J82 = conditions: Homo sapiens; J82 (Bladder), 72 h
Experimental: as §1, §2, §3

NCI-H1573 = conditions: Homo sapiens; NCI-H1573 (Lung), 72 h
Experimental: as §1, §2, §3

MEC-1 = conditions: Homo sapiens, MEC1; MEC-1 (Blood), 72 h
Experimental: as §1, §2, §3

Caki-1 = conditions: Homo sapiens; Caki-1 (Kidney), 72 h
Experimental: as §1, §2, §3

SK-BR-3 = conditions: Homo sapiens; SK-BR-3 (Breast), 72 h
Experimental: as §1, §2, §3

U118MG = conditions: Homo sapiens, U-118-MG; U118MG (Brain), 72 h
Experimental: as §1, §2, §3

U-266 = conditions: Homo sapiens; U-266 (Blood), 72 h
Experimental: as §1, §2, §3

SK-N-FI = conditions: Homo sapiens; SK-N-FI (Brain), 72 h
Experimental: as §1, §2, §3

Detroit562 = conditions: Homo sapiens, Detroit 562; Detroit562 (Head/Neck), 72 h
Experimental: as §1, §2, §3

HuH7 = conditions: Homo sapiens, Huh-7; HuH7 (Liver), 72 h
Experimental: as §1, §2, §3

OV56 = OV56 (Ovary), 72 h
Experimental: as §1, §2, §3

A2780 = conditions: Homo sapiens; A2780 (Ovary), 72 h
Experimental: as §1, §2, §3

NALM-6 = conditions: Homo sapiens; NALM-6 (Blood), 72 h
Experimental: as §1, §2, §3

SW480 = conditions: Homo sapiens; SW480 (Colon), 72 h
Experimental: as §1, §2, §3

SU-DHL-5 = conditions: Homo sapiens; SU-DHL-5 (Blood), 72 h
Experimental: as §1, §2, §3

HCC 1569 = conditions: Homo sapiens, HCC1569; HCC 1569 (Breast), 72 h
Experimental: as §1, §2, §3

RERF-LC-MS = RERF-LC-MS (Lung), 72 h
Experimental: as §1, §2, §3

Ishikawa = conditions: Homo sapiens; Ishikawa (Endometrium), 72 h
Experimental: as §1, §2, §3

HT-1080 = conditions: Homo sapiens; HT-1080 (Fibrosarcoma), 72 h
Experimental: as §1, §2, §3

SW620 = conditions: Homo sapiens, SW-620; SW620 (Colon), 72 h
Experimental: as §1, §2, §3

BT-20 = conditions: Homo sapiens; BT-20 (Breast), 72 h
Experimental: as §1, §2, §3

T98G = conditions: Homo sapiens; T98G (Brain), 72 h
Experimental: as §1, §2, §3

KMS-12-BM = conditions: Homo sapiens; KMS-12-BM (Blood), 72 h
Experimental: as §1, §2, §3

A2058 = conditions: Homo sapiens; A2058 (Skin), 72 h
Experimental: as §1, §2, §3

NCI-H838 = conditions: Homo sapiens; NCI-H838 (Lung), 72 h
Experimental: as §1, §2, §3

RL95-2 = conditions: Homo sapiens; RL95-2 (Endometrium), 72 h
Experimental: as §1, §2, §3

BxPC-3 = conditions: Homo sapiens; BxPC-3 (Pancreas), 72 h
Experimental: as §1, §2, §3

NCI-H82 = conditions: Homo sapiens; NCI-H82 (Lung), 72 h
Experimental: as §1, §2, §3

DLD-1 = conditions: Homo sapiens; DLD-1 (Colon), 72 h
Experimental: as §1, §2, §3

SCLC-21H = conditions: Homo sapiens; SCLC-21H (Lung), 72 h
Experimental: as §1, §2, §3

786-O = conditions: Homo sapiens, 786-0; 786-O (Kidney), 72 h
Experimental: as §1, §2, §3

**Q.** Which results are given for `C#C[C@]1(CO)O[C@@H](n2cnc3c(=O)[nH]c(N)nc32)C[C@@H]1O` [compound 13]?
**A.** IC50 (EFO-27): 9.9 µM; IC50 (PANC-1): > 10 µM; IC50 (J82): 5.73 µM; IC50 (NCI-H1573): 8.59 µM; IC50 (MEC-1): 9.85 µM; IC50 (Caki-1): 9.76 µM; IC50 (SK-BR-3): > 10 µM; IC50 (U118MG): 5.74 µM; IC50 (U-266): > 10 µM; IC50 (SK-N-FI): > 10 µM; IC50 (Detroit562): 4.79 µM; IC50 (HuH7): 1.24 µM; IC50 (OV56): 1.99 µM; IC50 (A2780): 4.58 µM; IC50 (NALM-6): 0.25 µM; IC50 (SW480): > 10 µM; IC50 (SU-DHL-5): 3.74 µM; IC50 (HCC 1569): > 10 µM; IC50 (RERF-LC-MS): > 10 µM; IC50 (Ishikawa): 6.07 µM; IC50 (HT-1080): 7.16 µM; IC50 (SW620): 7.21 µM; IC50 (BT-20): > 10 µM; IC50 (T98G): > 10 µM; IC50 (KMS-12-BM): 0.96 µM; IC50 (A2058): > 10 µM; IC50 (NCI-H838): > 10 µM; IC50 (RL95-2): 5.38 µM; IC50 (BxPC-3): 5.43 µM; IC50 (NCI-H82): 6.46 µM; IC50 (DLD-1): > 10 µM; IC50 (SCLC-21H): 6.78 µM; IC50 (786-O): 5.81 µM

From patent US20230293526A1, “METHOD FOR TREATING CANCER WITH A REVERSE TRANSCRIPTASE INHIBITOR” (PrimeFour Therapeutics, Inc., priority 2020, published 2023)
